# Measured values from patent US9458153B2, “Dihydroquinolizinones for the treatment and prophylaxis of hepatitis B virus infection” (Hoffmann-La Roche Inc., priority 2014, dated 2016).
# Structures can show the parent of a compound that is named as a salt.
# Tested on: HBsAg
# Experiment: HBsAg assay (chemiluminescence immunoassay of secreted HBsAg in HepG2.2.15 culture supernatant)
# Assay type: cell-based, HBV
# Conditions: HepG2.2.15 cells, CLIA kit
# Procedure, shortened: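 HepG2.2.15 cells, which constitutively express HBV, were seeded in duplicate and treated with three-fold serial compound dilutions at 1% DMSO final. Secreted HBsAg in culture supernatant was measured semi-quantitatively by chemiluminescence immunoassay. IC50 was extrapolated from dose-response curves.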
# [1] = HBsAg secretion reduced by 50% vs no drug control
# [2] = HBsAg secretion reduced by 50% vs no drug control, hydrochloride
# [3] = Hepatitis B virus, HepG2.2.15, HBsAg secretion reduced by 50% vs no drug control
Compound,IC50 [1],IC50 [3],also measured
"COc1cc2c(cc1OCC(C)(C)CO)CC(C(C)C)n1cc(C(=O)O)c(=O)cc1-2 (single isomer, unassigned; (-)) [Example 146, (−)-9-(3-hydroxy-2,2-dimethyl-propoxy)-6-isopropyl-10-methoxy-2-oxo-6,7-dihydrobenzo[a]quinolizine-3-carboxylic acid]",520 nM,–,–
"COc1cc2c(cc1OCC(C)(C)CO)CC(C(C)(C)C)n1cc(C(=O)O)c(=O)cc1-2 (single isomer, unassigned; (-)) [Example 151, (−)-6-tert-butyl-9-(3-hydroxy-2,2-dimethyl-propoxy)-10-methoxy-2-oxo-6,7-dihydrobenzo[a]quinolizine-3-carboxylic acid]",160 nM,–,–
"COc1cc2c(cc1OCCCCCO)CC(C(C)(C)C)n1cc(C(=O)O)c(=O)cc1-2 (single isomer, unassigned; (-)) [Example 154, (−)-6-tert-butyl-9-(5-hydroxypentoxy)-10-methoxy-2-oxo-6,7-dihydrobenzo[a]quinolizine-3-carboxylic acid]",120 nM,–,–
"COc1cc2c(cc1OCCCCCCO)CC(C(C)(C)C)n1cc(C(=O)O)c(=O)cc1-2 (single isomer, unassigned; (-)) [Example 157, (−)-6-tert-butyl-9-(6-hydroxyhexoxy)-10-methoxy-2-oxo-6,7-dihydrobenzo[a]quinolizine-3-carboxylic acid]",170 nM,–,–
"COc1cc2c(cc1OCCCCCCNC(=O)OC(C)(C)C)CC(C(C)(C)C)n1cc(C(=O)O)c(=O)cc1-2 (single isomer, unassigned; (-)) [Example 163, (−)-9-[6-(tert-butoxycarbonylamino)hexoxy]-6-tert-butyl-10-methoxy-2-oxo-6,7-dihydrobenzo[a]quinolizine-3-carboxylic acid]",350 nM,–,–
"COc1cc2c(cc1OCCCCCCN)CC(C(C)(C)C)n1cc(C(=O)O)c(=O)cc1-2 (single isomer, unassigned; (-)) [Example 165, (−)-9-(6-aminohexoxy)-6-tert-butyl-10-methoxy-2-oxo-6,7-dihydrobenzo[a]quinolizine-3-carboxylic acid hydrochloride]",–,–,IC50 [2]: 1550 nM
"COc1cc2c(cc1OCCCCCCCCNC(=O)OC(C)(C)C)CC(C(C)(C)C)n1cc(C(=O)O)c(=O)cc1-2 (single isomer, unassigned; (-)) [Example 169, (−)-9-[8-(tert-butoxycarbonylamino)octoxy]-6-tert-butyl-10-methoxy-2-oxo-6,7-dihydrobenzo[a]quinolizine-3-carboxylic acid]",190 nM,–,–
"COc1cc2c(cc1OCCCCCCCCN)CC(C(C)(C)C)n1cc(C(=O)O)c(=O)cc1-2 (single isomer, unassigned; (-)) [Example 171, (−)-9-(8-aminooctoxy)-6-tert-butyl-10-methoxy-2-oxo-6,7-dihydrobenzo[a]quinolizine-3-carboxylic acid hydrochloride]",–,–,IC50 [2]: 420 nM
"COc1cc2c(cc1OCCCCCN)CC(C(C)(C)C)n1cc(C(=O)O)c(=O)cc1-2 (single isomer, unassigned; (-)) [Example 174, (−)-9-(5-aminopentoxy)-6-tert-butyl-10-methoxy-2-oxo-6,7-dihydrobenzo[a]quinolizine-3-carboxylic acid hydrochloride]",–,–,IC50 [2]: 2420 nM
"COc1cc2c(cc1OCCCSC)CC(C(C)(C)C)n1cc(C(=O)O)c(=O)cc1-2 (single isomer, unassigned; (-)) [Example 185, (−)-6-tert-butyl-10-methoxy-9-(3-methylsulfanylpropoxy)-2-oxo-6,7-dihydrobenzo[a]quinolizine-3-carboxylic acid]",55 nM,–,–
"COc1cc2c(cc1OCCCS(C)(=O)=O)CC(C(C)(C)C)n1cc(C(=O)O)c(=O)cc1-2 (single isomer, unassigned; (-)) [Example 188, (−)-6-tert-butyl-10-methoxy-9-(3-methylsulfonylpropoxy)-2-oxo-6,7-dihydrobenzo[a]quinolizine-3-carboxylic acid]",220 nM,–,–
"COc1cc2c(cc1OCCN1CCOCC1)CC(C(C)(C)C)n1cc(C(=O)O)c(=O)cc1-2 (single isomer, unassigned; (-)) [Example 191, (−)-6-tert-butyl-10-methoxy-9-(2-morpholinoethoxy)-2-oxo-6,7-dihydrobenzo[a]quinolizine-3-carboxylic acid]",190 nM,–,–
"COc1cc2c(cc1OCCCN1CCOCC1)CC(C(C)(C)C)n1cc(C(=O)O)c(=O)cc1-2 (single isomer, unassigned; (-)) [Example 194, (−)-6-tert-butyl-10-methoxy-9-(3-morpholinopropoxy)-2-oxo-6,7-dihydrobenzo[a]quinolizine-3-carboxylic acid]",270 nM,–,–
"COCCCOc1cc2c(cc1OC)-c1cc(=O)c(C(=O)O)cn1C(CC(F)(F)F)C2 (single isomer, unassigned; (-)) [Example 201, (−)-10-methoxy-9-(3-methoxypropoxy)-2-oxo-6-(2,2,2-trifluoroethyl)-6,7-dihydrobenzo[a]quinolizine-3-carboxylic acid]",14200 nM,–,–
"COCCCOc1cc2c(cc1Cl)-c1cc(=O)c(C(=O)O)cn1C(C(C)(C)C)C2 (single isomer, unassigned; (-)) [Example 204, (−)-6-tert-butyl-10-chloro-9-(3-methoxypropoxy)-2-oxo-6,7-dihydrobenzo[a]quinolizine-3-carboxylic acid]",140 nM,–,–
"COCCCOc1cc2c(cc1Cl)-c1cc(=O)c(C(=O)O)cn1C(C1(C)CC1)C2 (single isomer, unassigned; (-)) [Example 207, (−)-10-chloro-9-(3-methoxypropoxy)-6-(1-methylcyclopropyl)-2-oxo-6,7-dihydrobenzo[a]quinolizine-3-carboxylic acid]",40 nM,–,–

Compound,IC50 [1],IC50 [3],also measured
"COCCCOc1cc2c(cc1OC)-c1cc(=O)c(C(=O)O)cn1C(C1(C)CC1)C2 (single isomer, unassigned; (-)) [Example 210, (−)-10-methoxy-9-(3-methoxypropoxy)-6-(1-methylcyclopropyl)-2-oxo-6,7-dihydrobenzo[a]quinolizine-3-carboxylic acid]",92 nM,–,–
"COCCCOc1cc2c(c(F)c1F)-c1cc(=O)c(C(=O)O)cn1C(C(C)C)C2 (single isomer, unassigned; (-)) [Example 215, (−)-10,11-difluoro-6-isopropyl-9-(3-methoxypropoxy)-2-oxo-6,7-dihydrobenzo[a]quinolizine-3-carboxylic acid]",1140 nM,–,–
"COc1cc2c(cc1OCc1ccccc1)CC(C)n1cc(C(=O)O)c(=O)cc1-2 (stereo not shown) [Example 1, 9-benzyloxy-10-methoxy-6-methyl-2-oxo-6,7-dihydrobenzo[a]quinolizine-3-carboxylic acid]",–,13 nM,–
"CCOc1cc2c(cc1OC)-c1cc(=O)c(C(=O)O)cn1C(C)C2 (stereo not shown) [Example 4, 9-ethoxy-10-methoxy-6-methyl-2-oxo-6,7-dihydrobenzo[a]quinolizine-3-carboxylic acid]",–,98 nM,–
"CCC1Cc2cc(OCc3ccccc3)c(OC)cc2-c2cc(=O)c(C(=O)O)cn21 (stereo not shown) [Example 8, 9-benzyloxy-6-ethyl-10-methoxy-2-oxo-6,7-dihydrobenzo[a]quinolizine-3-carboxylic acid]",150 nM,–,–
"CCC1Cc2cc(OCCc3ccccc3)c(OC)cc2-c2cc(=O)c(C(=O)O)cn21 (stereo not shown) [Example 14, 6-ethyl-10-methoxy-2-oxo-9-(2-phenylethoxy)-6,7-dihydrobenzo[a]quinolizine-3-carboxylic acid]",–,14 nM,–
"CCCCOc1cc2c(cc1OC)-c1cc(=O)c(C(=O)O)cn1C(CC)C2 (stereo not shown) [Example 15, 9-butoxy-6-ethyl-10-methoxy-2-oxo-6,7-dihydrobenzo[a]quinolizine-3-carboxylic acid]",–,16 nM,–
"CCC1Cc2cc(OCCC3CCCCC3)c(OC)cc2-c2cc(=O)c(C(=O)O)cn21 (stereo not shown) [Example 16, 9-(2-cyclohexylethoxy)-6-ethyl-10-methoxy-2-oxo-6,7-dihydrobenzo[a]quinolizine-3-carboxylic acid]",–,15 nM,–
"C#CCOc1cc2c(cc1OC)-c1cc(=O)c(C(=O)O)cn1C(CC)C2 (stereo not shown) [Example 17, 6-ethyl-10-methoxy-2-oxo-9-prop-2-ynoxy-6,7-dihydrobenzo[a]quinolizine-3-carboxylic acid]",–,190 nM,–
"CCC1Cc2cc(OCC(=O)N3CCCC3)c(OC)cc2-c2cc(=O)c(C(=O)O)cn21 (stereo not shown) [Example 18, 6-ethyl-10-methoxy-2-oxo-9-(2-oxo-2-pyrrolidin-1-yl-ethoxy)-6,7-dihydrobenzo[a]quinolizine-3-carboxylic acid]",–,9470 nM,–
"CCC1Cc2cc(OCCOCCOC)c(OC)cc2-c2cc(=O)c(C(=O)O)cn21 (stereo not shown) [Example 19, 6-ethyl-10-methoxy-9-[2-(2-methoxyethoxyl)ethoxy]-2-oxo-6,7-dihydrobenzo[a]quinolizine-3-carboxylic acid]",–,250 nM,–
"CCC1Cc2cc(OCCN3CCOCC3)c(OC)cc2-c2cc(=O)c(C(=O)O)cn21 (stereo not shown) [Example 20, 6-ethyl-10-methoxy-9-(2-morpholinoethoxy)-2-oxo-6,7-dihydrobenzo[a]quinolizine-3-carboxylic acid]",–,220 nM,–
"CCC1Cc2cc(OCCO)c(OC)cc2-c2cc(=O)c(C(=O)O)cn21 (stereo not shown) [Example 21, 6-ethyl-9-(2-hydroxyethoxy)-10-methoxy-2-oxo-6,7-dihydrobenzo[a]quinolizine-3-carboxylic acid]",–,450 nM,–
"CCC1Cc2cc(OCC(C)(C)CO)c(OC)cc2-c2cc(=O)c(C(=O)O)cn21 (stereo not shown) [Example 22, 6-ethyl-9-(3-hydroxy-2,2-dimethyl-propoxy)-10-methoxy-2-oxo-6,7-dihydrobenzo[a]quinolizine-3-carboxylic acid]",39 nM,–,–
"CCC1Cc2cc(OCCCO)c(OC)cc2-c2cc(=O)c(C(=O)O)cn21 (stereo not shown) [Example 25, 6-ethyl-9-(3-hydroxypropoxy)-10-methoxy-2-oxo-6,7-dihydrobenzo[a]quinolizine-3-carboxylic acid]",–,155 nM,–
